Experimental data: patent publication US20220073448A1, “METHOD FOR SYNTHESIZING CARBOXY-CONTAINING ANTHRAQUINONE DERIVATIVE, CARBOXY-CONTAINING ANTHRAQUINONE DERIVATIVE PREPARED THEREBY, AND BATTERY SYSTEM COMPRISING SAME” (CHINA SALT JINTAN CO., LTD., priority 2019, published 2022)

Assay: Cyclic voltammetry (CV), three-electrode system, glassy carbon working electrode, Ag/AgCl reference electrode
Format: physicochemical
Conditions: 2 mM in potassium hydroxide aqueous solution at pH=14, scan rate 20 mV/s, in V
Excerpt: In the cyclic voltammetry test of the electric pair, the CS Series electrochemical workstation from Wuhan Corrtest Instruments Corp., Ltd. was used to test the electrochemical performance of the organic electric pair with a three-electrode system. The working electrode was a glassy carbon electrode (Tianjin IDA Hengsheng Co.), the reference electrode was a Ag/AgCl electrode, the counter electrode was a platinum electrode, the scan range of the electric pair of positive electrode and negative electrode was −1.0 to 1.0 V, and the scan rate was 20 mV·s^−1.
A 1-[N-(5-carboxybutylacyl)]aminoanthraquinone solution (at a concentration of 2 mM, in a potassium hydroxide aqueous solution at pH=14) was investigated by cyclic voltammetry (CV).
A 1-[N-(6-carboxypentylacyl)]aminoanthraquinone solution (at a concentration of 2 mM, in a potassium hydroxide aqueous solution at pH=14) was investigated by cyclic voltammetry (CV).
A 1-[N-(7-carboxyhexylacyl)]aminoanthraquinone solution (at a concentration of 2 mM, in a potassium hydroxide aqueous solution at pH=14) was investigated by cyclic voltammetry (CV).
A 1-[N-(8-carboxyheptylacyl)]aminoanthraquinone solution (at a concentration of 2 mM, in a potassium hydroxide aqueous solution at pH=14) was investigated by cyclic voltammetry (CV).

Compound | redox peak in CV curve | redox peak in CV curve (more negative)
1-[N-(7-carboxyhexylacyl)]aminoanthraquinone | ~−0.60 | ~−0.67
O=C(O)CCCCC(=O)Nc1cccc2c1C(=O)c1ccccc1C2=O [1-[N-(5-carboxybutylacyl)]aminoanthraquinone] | ~−0.60 | ~−0.65
O=C(O)CCCCC(=O)Nc1cccc2c1C(=O)c1ccccc1C2=O [1-[N-(6-carboxypentylacyl)]aminoanthraquinone] | ~−0.60 | ~−0.66
O=C(O)CCCCCCCC(=O)Nc1cccc2c1C(=O)c1ccccc1C2=O [1-[N-(8-carboxyheptylacyl)]aminoanthraquinone] | ~−0.60 | ~−0.68
